Reference: patent US5266571A, “Treatment of hemorrhoids with 5-HT2 antagonists” (priority 1992, dated 1993)
Structures can show the parent of a compound that is named as a salt. Where two headings read alike, the source gives them in different places.

Assays:
5-HT1 = experiment: Receptor Blocking Profile, 5-HT1; type: binding; details: read-out: Receptor Blocking Profile IC-50, 5-HT1
Method: (§1) The IC- 50 is the concentration that inhibits agonist binding to the
(§2) receptor by 50%. The better the blocker a compound is, the smaller is the
(§3) concentration thereof needed to block the receptor, i.e., the smaller the
(§4) IC-50, the better receptor blocker or antagonist the compound is.
(§5) The receptor blocking profile is determined as follows: Labeled 5-HT is mixed with a purified preparation containing the receptor. The amount of labeled material that attaches itself to the receptor and cannot be washed off is calculated. In a series of other similar tubes, the same quantity of labeled 5-HT is mixed with increasing concentrations of the antagonist which will antagonize the binding of 5-HT to the receptor. Decreasing quantities of the labeled material will bind to the receptor. The concentration of the antagonist that inhibits the binding by 50% is then calculated.

Dopamine-2 = Dopamine-2 (Homo sapiens, UniProt P14416); experiment: Receptor Blocking Profile, Dopamine-2; type: binding
Dopamine-2, sequence (P14416 whole entry): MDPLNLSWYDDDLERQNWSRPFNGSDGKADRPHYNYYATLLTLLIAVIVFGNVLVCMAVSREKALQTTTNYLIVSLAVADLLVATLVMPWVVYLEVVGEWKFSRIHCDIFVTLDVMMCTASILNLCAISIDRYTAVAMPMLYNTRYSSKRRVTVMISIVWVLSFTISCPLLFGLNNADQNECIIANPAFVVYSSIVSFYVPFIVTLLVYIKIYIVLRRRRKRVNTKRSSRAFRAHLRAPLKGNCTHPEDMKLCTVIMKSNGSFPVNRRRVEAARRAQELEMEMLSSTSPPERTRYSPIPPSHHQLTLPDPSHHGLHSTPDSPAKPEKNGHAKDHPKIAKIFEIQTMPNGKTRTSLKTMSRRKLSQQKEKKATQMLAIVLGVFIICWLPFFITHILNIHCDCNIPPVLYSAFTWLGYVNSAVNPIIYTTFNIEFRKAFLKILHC

Alpha-receptor = experiment: Receptor Blocking Profile, Alpha-receptor; type: binding; details: read-out: Receptor Blocking Profile IC-50, Alpha-receptor
Method: as §1, §2, §3, §4, §5

human colon veins = experiment: Activity against 5-HT on the human colon in vitro (contraction of human colonic vein rings); details: for blocking contractile effects of 5-HT on human colon rings, correlation with receptor blocking potencies: human colon rings in vitro, compared with the receptors tested; for IC50: read-out: IC-50, activity against 5-HT on the human colon in vitro
Method: Human colonic vein rings were isolated from discarded human colon tissue following surgery (colostomy). The rings were prepared immediately after surgery and were suspended in buffered physiological saline. The contractions produced by the rings in response to the addition of 5-HT in vitro were measured. The effects of three selected 5-HT2 antagonist compounds on antagonizing 5-HT contractile effects were also determined.
This activity is determined as follows: Rings of human colon veins are prepared and hung in a tissue bath. The contractions of the rings are monitored. Adding 5-HT causes the rings to contract. Pre-addition of increasing concentrations of the antagonist result in lesser contractions. The amount of antagonist causing a 50% inhibition of the contractions is then calculated.

5-HT2 = 5-HT2 (Homo sapiens, UniProt P28223); experiment: Receptor Blocking Profile: inhibition of labeled 5-HT binding, 5-HT2
5-HT2, sequence (P28223 whole entry, species assumed): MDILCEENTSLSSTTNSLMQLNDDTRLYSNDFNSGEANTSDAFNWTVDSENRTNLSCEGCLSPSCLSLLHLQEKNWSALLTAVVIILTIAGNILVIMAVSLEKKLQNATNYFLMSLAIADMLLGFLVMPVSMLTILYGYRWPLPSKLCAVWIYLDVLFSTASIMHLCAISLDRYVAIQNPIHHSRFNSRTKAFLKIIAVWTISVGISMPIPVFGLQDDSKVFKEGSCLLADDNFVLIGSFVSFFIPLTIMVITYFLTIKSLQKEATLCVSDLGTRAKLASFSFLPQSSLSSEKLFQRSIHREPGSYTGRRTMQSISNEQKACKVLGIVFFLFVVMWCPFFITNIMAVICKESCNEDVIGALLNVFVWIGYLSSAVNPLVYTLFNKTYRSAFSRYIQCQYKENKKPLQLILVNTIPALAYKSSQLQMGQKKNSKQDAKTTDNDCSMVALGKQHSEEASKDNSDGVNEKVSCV
Method: as §5

5-HT2 receptor [1] = details: background statement; cited from earlier work
5-HT2 receptor [2] = details: background statement; cited from earlier work; remark: listed apart in the source
[3] = human colon vein rings, antagonist pre-added, 5-HT-induced contraction
[4] = read-out: Receptor Blocking Profile IC-50, Dopamine-2

CCc1nn(CCCN2CCN(c3cccc(Cl)c3)CC2)c(=O)n1CCOc1ccccc1 [Compound II, 2-[3-[4-(3-chlorophenyl)-1-piperazinyl]propyl-5-ethyl-2,4-dihydro-4-(2-phenoxyethyl)-3H-1,2,4-triazol-3-one hydrochloride]
IC50 (5-HT1): > 1000 nM
IC50 (Dopamine-2): > 1000 nM
IC50 (Alpha-receptor): 160 nM
blocking contractile effects of 5-HT on human colon rings, correlation with receptor blocking potencies (human colon veins): correlated best with their 5-HT2 blocking potencies
IC50 (human colon veins; [3]): 10 nM

CN1CCCCC1CCc1ccccc1NC(=O)C=Cc1ccccc1.Cl (centres unmarked) [Compound I, 2'[2-(1-methyl-2-piperidyl)ethyl] cinnamanilide hydrochloride]
IC50 (5-HT2): 3.4 nM
IC50 (5-HT1): 22000 nM
IC50 (Dopamine-2; [4]): > 1000 nM
IC50 (Alpha-receptor): > 1000 nM
blocking contractile effects of 5-HT on human colon rings, correlation with receptor blocking potencies (human colon veins): correlated best with their 5-HT2 blocking potencies
IC50 (human colon veins; [3]): 2 nM

CN1C[C@@H](NS(=O)(=O)N(C)C)C[C@@H]2c3cccc4c3c(cn4C)C[C@H]21 [mesulergine]
antagonism of binding of 5-HT to 5-HT2 receptor (5-HT2 receptor [1]): antagonized

O=C(c1ccc(F)cc1)C1CCN(CCn2c(=O)[nH]c3ccccc3c2=O)CC1 [ketanserin]
antagonism of binding of 5-HT to 5-HT2 receptor (5-HT2 receptor [1]): antagonized
inhibition of modulation of phosphatidylinositol turnover by 5-HT2 receptor (5-HT2 receptor [2]): inhibited

O=C1CC2(CCCC2)CC(=O)N1CCCCN1CCN(c2nsc3ccccc23)CC1 [Compound III, 8-[4-[4-(1,2-benzisotriazol-3-yl)-1-piperazinyl]butyl]-8-azaspiro[4,5]decane-7,9-dione hydrochloride]
IC50 (5-HT2; read-out: Receptor Blocking Profile IC-50, 5-HT2, displacement of labeled 5-HT): 1.7 nM
IC50 (5-HT1): 12.5 nM
IC50 (Dopamine-2; [4]): 8.4 nM
IC50 (Alpha-receptor): 47 nM
IC50 (human colon veins; Homo sapiens): 1 nM
blocking contractile effects of 5-HT on human colon rings, correlation with receptor blocking potencies (human colon veins): correlated best with their 5-HT2 blocking potencies
